From patent US4425356A, “Lankacidin derivatives used in swine husbandry” (Takeda Chemical Industries, Ltd., priority 1980, dated 1984)
Values after ≈ are worked out from the molar mass of the structure shown. Like-named read-outs stand apart in the source and are kept apart here. Each block holds one compound with its values, some of them ahead of it.

Key:
Treponema hyodysenteriae [1] = assay: efficacy in experimental infection in mice with swine dysentery, Test Example 4; assay type: in vivo; conditions: 5 mg/kg/day oral, day 1 to day 4; seven days after infection
Procedure: Lankacidin A, lankacidin C, lankacidin C 8-acetate, lankacidin C 14-propionate, lankacidinol A and lankacidinol were tested for efficacy against swine dysentery in experimental infection in mice with swine dysentery.
The similar experimental infection model of swine dysentery in mice as that described, for example, by Joens et al. in Infection and Immunity, 25, 757-760 (1979), American Journal of Veterinary Research, 41, 1225-1226 (1980) and Veterinary Record, 107, 527-529 (1980) was used. Thus, a field isolate of Treponema hyodysenteriae anaerobically cultivated on the 5% defibrinated horse blood added Trypticase soy agar (BBL) plate was mashed together with the culture medium and diluted two-fold with Trypticase soy broth (BBL). Mice were inoculated intragastrically with this infecting dilution. Each test agent was suspended in 5% gum arabic solution and forcibly administered orally from day 1 to day 4 following infection. Seven days after infection, the cecum was examined for lesions, and the cecum was mashed together with the contents and subjected to Treponema hyodysenteriae counting. Excellent efficacy was produced in each of the drug-administered groups.

Treponema hyodysenteriae [2] = assay: in vitro antibacterial activity (MIC, agar dilution method), Test Examples 1-3; assay type: cell-based; conditions: Brachyspira hyodysenteriae, 48 h, 37° C., 2 days, anaerobic
Procedure: Several agents were tested for in vitro antibacterial activity against Treponema hyodysenteriae, the pathogenic bacteria causing swine dysentery, by the method of testing drug sensitivity of Treponema hyodysenteriae (Kashiwazaki et al. Abstracts of Papers presented at the 82nd Meeting of the Japanese Society of Veterinary Science, page 101, 1976).
(1) Strains: These strains belong to Treponema hyodysenteriae isolated
from the bloody mucous faeces of dysenteric pigs in Japan.
(2) Antimicrobial activity assay: Agar dilution method
(3) Inoculum size: A loopful of bacterial suspension (10^6 CFU/ml)
(4) Cultural conditions: GasPak anaerobic system (BBL), 37° C., 2
Typical agents among compound (I) were tested for in vitro antibacterial activity by the same method as in Test Example 1.
The experimental conditions are the same as in Test Example 1 (Table 1).
Agents of compound (I) were tested for in vitro antibacterial activity by the same method as in Test Example 1.

[3] = acute toxicity tests with mice; conditions: mouse, in vivo
Text: The toxicity of compound (I) in animals is very low.

[4] = test system: Treponema hyodysenteriae 78/A strain; assay: therapeutic administration in pigs showing clinical signs of swine dysentery, Test Examples 8-9; assay type: in vivo; conditions: for Condition of feces: Table 9, individual pig
Procedure: This test was conducted under the conditions of so-called therapeutic administration. […] The method of infection was the same as in Test Example 5. […] Simultaneously with showing of the signs, the pigs were provided with a feed containing 50 ppm of lankacidin C. […] After 2 days, the viable count for the pathogen in feces was below the detection limit (10^2 CFU/g).
The condition of feces was rated at one of the following four classes:
.circle. normal; loose; diarrheal; .circleincircle. mucous and bloody
count is below the detection limit (10^2 CFU/g).
The symbol * indicates those days on which the feed containing 50 ppm of
lankacidin C was given.
Lankacidins were tested for therapeutic effects in swine dysentery under therapeutic conditions in the same manner as in Test Example 8. The effects were judged based on the condition of feces.
The condition of feces was rated at one of the following four classes;
The symbol * indicates the days on which the feed containing 50 ppm of th

[5] = test system: Treponema hyodysenteriae 78/A strain; assay: efficacy against swine dysentery under experimental infection conditions in pigs (drug in feed), Test Examples 5-7; assay type: in vivo, Landrace pigs
Procedure: Lankacidin C was tested for efficacy against swine dysentery under experimental infection conditions. Thus, twelve 6-week-old Landrace pigs (4 per group) were used. The test drug was admixed to a concentration of 100 ppm with the domestically formulated starter feed for young pigs without antibiotics. The animals were provided with the ration ad libitum. Infection of the pigs was effected by direct intragastrical administration to the SPF pigs of an inoculum prepared by preliminary anaerobic cultivation of the Treponema hyodysenteriae 78/A strain on a 5% horse blood added agar plate, mashing together with the culture medium and admixing with 5% mucin added phosphate buffer. Colonic contents and mucosa were collected from pigs which developed typical signs of swine dysentery, and diluted two-fold with 5% mucin added phosphate buffer. The dilution was used as the final inoculum, and 100 ml of the dilution was directly injected into the stomach of test pigs at the age of 7 weeks (fasted for 24 hours before infection). The pigs were fed for 21 days following infection.
The data are each the mean value per head for the 21day period from
infection to autopsy. Different alphabetic letters on the same line
indicate that there is a significant difference between the data to which
they are attached (P <0.05).
Lankacidin C was tested at concentrations in feed of 100 ppm and lower by the same method as in Test Example 5, with carbadox, a commonly used anti-swine-dysentery agent, for comparison.
The anti-swine-dysentery effects of 10 ppm each of lankacidin A and lankacidin C 14-propionate were examined by the procedure of Test Example 6.

[6] = strain 78/A, read-out: Minimum Inhibitory Concentration
[7] = strain CD1 (CD-1), read-out: Minimum Inhibitory Concentration
[8] = strain DJ70P1, read-out: Minimum Inhibitory Concentration
[9] = strain MK-2, read-out: Minimum Inhibitory Concentration
[10] = 10 ppm in feed, 21-day test period
[11] = 10 ppm in feed, 21 day period, mean per head

Compound: CC1=CCC(O)C=CC(C)=CC(NC(=O)C(C)O)C2(C)C(=O)OC(CC(O)C=C1)C(C)C2=O (stereo not drawn) [Lankacidinol, lankacidinol]
Number of mice from which the pathogen was detected/number of mice tested (Treponema hyodysenteriae [1]): 0/5
Number of mice with cecal lesions/number of mice tested (Treponema hyodysenteriae [1]): 0/5
MIC (Treponema hyodysenteriae [2]; read-out: Minimum Inhibitory Concentration, strain 78/A): 12.5 µg/mL (≈ 27.1 µM)
MIC (Treponema hyodysenteriae [2]; read-out: Minimum Inhibitory Concentration, strain CD1 (CD-1)): 12.5 µg/mL (≈ 27.1 µM)
MIC (Treponema hyodysenteriae [2]; read-out: Minimum Inhibitory Concentration, strain DJ70P1): 25 µg/mL (≈ 54.2 µM)
MIC (Treponema hyodysenteriae [2]; read-out: Minimum Inhibitory Concentration, strain MK-2): 25 µg/mL (≈ 54.2 µM)

Compound: CCC(=O)OC1C=CC(C)=CCC(O)C=CC(C)=CC(NC(=O)C(C)=O)C2(C)C(=O)OC(C1)C(C)C2=O (stereo not drawn) [Lankacidin C 14-propionate, lankacidin C 14-propionate]
Number of mice from which the pathogen was detected/number of mice tested (Treponema hyodysenteriae [1]): 1/5
Number of mice with cecal lesions/number of mice tested (Treponema hyodysenteriae [1]): 0/5
LD50 ([3]; ip, intraperitoneal, read-out: intraperitoneal LD50): > 10000 mg/kg
LD50 ([3]; oral, read-out: oral LD50): > 10000 mg/kg
therapeutic effect in swine dysentery (in words) ([4]; 50 ppm in feed): therapeutically effective
Condition of feces ([4]; 50 ppm in feed days 0-6, day 7): .circle.
Condition of feces ([4]; 50 ppm in feed days 0-6, day 8): .circle.
Condition of feces ([4]; 50 ppm in feed days 0-6, day 9): .circle.
Condition of feces ([4]; 50 ppm in feed days 0-6, day 10): .circle.
Condition of feces ([4]; 50 ppm in feed days 0-6, day 11): .circle.
Condition of feces ([4]; 50 ppm in feed days 0-6, day 12): .circle.
Condition of feces ([4]; 50 ppm in feed days 0-6, day 13): .circle.
Condition of feces ([4]; 50 ppm in feed days 0-6, day 14): .circle.
Condition of feces ([4]; 50 ppm in feed days 0-6, day 15): .circle.
Condition of feces ([4]; 50 ppm in feed days 0-6, day 16): .circle.
Condition of feces ([4]; 50 ppm in feed days 0-6, day 17): .circle.
Condition of feces ([4]; 50 ppm in feed days 0-6, day 18): .circle.
Condition of feces ([4]; 50 ppm in feed days 0-6, day 19): .circle.
Condition of feces ([4]; 50 ppm in feed days 0-6, day 20): .circle.
Condition of feces ([4]; 50 ppm in feed days 0-6, day 21): .circle.
Condition of feces ([4]; 50 ppm in feed, day 0 after manifestation of signs): .circleincircle.
Condition of feces ([4]; 50 ppm in feed, day 1): .circle.
Condition of feces ([4]; 50 ppm in feed, day 2): .circle.
Condition of feces ([4]; 50 ppm in feed, day 3): .circle.
Condition of feces ([4]; 50 ppm in feed, day 4): .circle.
Condition of feces ([4]; 50 ppm in feed, day 5): .circle.
Condition of feces ([4]; 50 ppm in feed, day 6): .circle.
MIC (Treponema hyodysenteriae [2]; [6]): 1.56 µg/mL (≈ 3.03 µM)
MIC (Treponema hyodysenteriae [2]; [7]): 3.13 µg/mL (≈ 6.07 µM)
MIC (Treponema hyodysenteriae [2]; [8]): 3.13 µg/mL (≈ 6.07 µM)
MIC (Treponema hyodysenteriae [2]; [9]): 1.56 µg/mL (≈ 3.03 µM)
Number of pigs from which the pathogen was detected, in colonic mucosa ([5]; 10 ppm in feed): 0
Number of pigs from which the pathogen was detected, in feces ([5]; 10 ppm in feed): 0
Number of pigs showing colonic lesions ([5]; 10 ppm in feed): 0
Number of days on which diarrhea was observed [5, 10]: 0 days
Number of days on which mucous bloody stool was observed [5, 10]: 0 days
Number of pigs showing signs of infection/number of pigs used [5, 10]: 0/4
Body weight gain [5, 11]: 562 grams/day
Feed conversion [5, 11]: 1.81
Feed intake [5, 11]: 21.1 kg
Body weight at the time of completion of test ([5]; 10 ppm in feed, mean per head): 23.1 kg
effect against swine dysentery (in words) ([5]; pig, in vivo): distinctly effective against swine dysentery

MIC (Treponema hyodysenteriae [2]; [6]): 0.39 µg/mL (≈ 0.778 µM)
MIC (Treponema hyodysenteriae [2]; [7]): 0.39 µg/mL (≈ 0.778 µM)
MIC (Treponema hyodysenteriae [2]; [8]): 0.78 µg/mL (≈ 1.56 µM)
MIC (Treponema hyodysenteriae [2]; [9]): 0.39 µg/mL (≈ 0.778 µM)
Compound: CC(=O)OC1C=CC(C)=CC(NC(=O)C(C)=O)C2(C)C(=O)OC(CC(O)C=CC(C)=CC1)C(C)C2=O (stereo not drawn) [Lankacidin C 8-acetate, lankacidin C 8-acetate]
Number of mice from which the pathogen was detected/number of mice tested (Treponema hyodysenteriae [1]): 0/5
Number of mice with cecal lesions/number of mice tested (Treponema hyodysenteriae [1]): 0/5

MIC (Treponema hyodysenteriae [2]; [6]): 12.5 µg/mL (≈ 24.8 µM)
MIC (Treponema hyodysenteriae [2]; [7]): 25 µg/mL (≈ 49.6 µM)
MIC (Treponema hyodysenteriae [2]; [8]): 25 µg/mL (≈ 49.6 µM)
MIC (Treponema hyodysenteriae [2]; [9]): 25 µg/mL (≈ 49.6 µM)
Compound: CC(=O)OC1C=CC(C)=CCC(O)C=CC(C)=CC(NC(=O)C(C)O)C2(C)C(=O)OC(C1)C(C)C2=O (stereo not drawn) [Lankacidinol A, lankacidinol A]
Number of mice from which the pathogen was detected/number of mice tested (Treponema hyodysenteriae [1]): 1/5
Number of mice with cecal lesions/number of mice tested (Treponema hyodysenteriae [1]): 0/5
